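The compound was tested at five concentrations on cells cultured in 96-well plates, with a 48-hour exposure period. TGI is the concentration that stops growth completely.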
Key:
Test in all cases: NCI anticancer screen, dose series, 48 h
[1] = tested on: SF-295 CNS
[2] = tested on: SW-620 colon
[3] = tested on: SK-MEL-5 melanoma
[4] = tested on: TK-10 renal
[5] = tested on: SNB-78 CNS
[6] = tested on: IGROV1 ovarian
[7] = tested on: HCT-15 colon
[8] = tested on: ACHN renal
[9] = tested on: HOP-18 NSCLC
[10] = tested on: LXFL 529 NSCLC
[11] = tested on: SF-268 CNS
[12] = tested on: HCT-116 colon
[13] = tested on: M14 melanoma
[14] = tested on: OVCAR-5 ovarian
[15] = tested on: OVCAR-8 ovarian
[16] = tested on: XF 498 CNS
[17] = tested on: NCI-H522 lung
[18] = tested on: SN12C renal
[19] = tested on: MOLT-4 leukemia
[20] = tested on: UACC-257 melanoma
[21] = tested on: OVCAR-3 ovarian
[22] = tested on: SNB-75 CNS
[23] = tested on: KM20L2 colon
[24] = tested on: SNB-19 CNS
[25] = tested on: RPMI-8226 leukemia
[26] = tested on: HT29 colon
[27] = tested on: SF-539 CNS
[28] = tested on: SK-MEL-28 melanoma
[29] = tested on: OVCAR-4 ovarian
[30] = tested on: CCRF-CEM leukemia
[31] = tested on: CAKI-1 renal
[32] = tested on: SK-MEL-2 melanoma
[33] = tested on: UO-31 renal
[34] = tested on: U251 CNS
[35] = tested on: NCI-H226 lung
[36] = tested on: 786-0 renal
[37] = tested on: NCI-H460 lung
[38] = tested on: M19-MEL melanoma
[39] = tested on: HCC-2998 colon
[40] = tested on: K-562 leukemia
[41] = tested on: RXF 393 renal
[42] = tested on: LOX IMVI melanoma
[43] = tested on: KM12 colon
[44] = tested on: COLO 205 colon
[45] = tested on: NCI-H23 lung
[46] = tested on: EKVX NSCLC
[47] = tested on: DLD-1 colon
[48] = tested on: DU-145 prostate
[49] = tested on: A549 NSCLC
[50] = tested on: SK-OV-3 ovarian
[51] = tested on: A498 renal
[52] = tested on: HL-60(TB) leukemia
[53] = tested on: SR leukemia
[54] = tested on: HOP-92 NSCLC
[55] = tested on: UACC-62 melanoma
[56] = tested on: HOP-62 NSCLC
[57] = tested on: DMS 114 small cell lung
[58] = tested on: MALME-3M melanoma
[59] = tested on: RXF-631 renal
[60] = tested on: DMS 273 small cell lung

Q: How did the TGI [1] turn out when `C=C(C[N+](C)(C)C)N/N=C/c1oc(-c2ccc(OC)c(OC)c2)c(-c2ccc(OC)c(OC)c2)c1[N+](=O)[O-]` was run?
A: 39.6 µM

Q: And the TGI [2]?
A: 34.5 µM

Q: What about the TGI [3] of the same compound?
A: 31.7 µM

Q: And the TGI [4]?
A: 50.6 µM

Q: What about the TGI [5] of the same compound?
A: > 100 µM

Q: What about the TGI [6] of the same compound?
A: 34.3 µM

Q: What about the TGI [7] of the same compound?
A: 36.8 µM

Q: And the TGI [8]?
A: 31.5 µM

Q: And the TGI [9]?
A: 60.4 µM

Q: What about the TGI [10] of the same compound?
A: 52.4 µM

Q: What about the TGI [11] of the same compound?
A: 38.7 µM

Q: What about the TGI [12] of the same compound?
A: 32.5 µM

Q: What about the TGI [13] of the same compound?
A: 48.2 µM

Q: And the TGI [14]?
A: 40.3 µM

Q: What about the TGI [15] of the same compound?
A: 31.4 µM

Q: What about the TGI [16] of the same compound?
A: 56.6 µM

Q: What about the TGI [17] of the same compound?
A: 45.3 µM

Q: And the TGI [18]?
A: 32.6 µM

Q: What about the TGI [19] of the same compound?
A: 83.6 µM

Q: And the TGI [20]?
A: 46.6 µM

Q: What about the TGI [21] of the same compound?
A: 71.6 µM

Q: And the TGI [22]?
A: 78.2 µM

Q: And the TGI [23]?
A: > 100 µM

Q: And the TGI [24]?
A: > 100 µM

Q: And the TGI [25]?
A: 41.4 µM

Q: What about the TGI [26] of the same compound?
A: 32.1 µM

Q: And the TGI [27]?
A: 31.6 µM

Q: What about the TGI [28] of the same compound?
A: 33.8 µM

Q: And the TGI [29]?
A: 38 µM

Q: And the TGI [30]?
A: 50.5 µM

Q: What about the TGI [31] of the same compound?
A: > 100 µM

Q: What about the TGI [32] of the same compound?
A: 31.9 µM

Q: What about the TGI [33] of the same compound?
A: 33.7 µM

Q: And the TGI [34]?
A: 40.2 µM

Q: What about the TGI [35] of the same compound?
A: 66.3 µM

Q: And the TGI [36]?
A: 32.9 µM

Q: And the TGI [37]?
A: 40.2 µM

Q: And the TGI [38]?
A: 29.3 µM

Q: What about the TGI [39] of the same compound?
A: 35.5 µM

Q: And the TGI [40]?
A: 52.5 µM

Q: And the TGI [41]?
A: 30.1 µM

Q: What about the TGI [42] of the same compound?
A: 28.9 µM

Q: And the TGI [43]?
A: 31.5 µM

Q: And the TGI [44]?
A: 33.6 µM

Q: And the TGI [45]?
A: 44.7 µM

Q: And the TGI [46]?
A: > 100 µM

Q: And the TGI [47]?
A: 46.9 µM

Q: And the TGI [48]?
A: > 100 µM

Q: What about the TGI [49] of the same compound?
A: > 100 µM

Q: And the TGI [50]?
A: 64.4 µM

Q: What about the TGI [51] of the same compound?
A: 82.3 µM

Q: And the TGI [52]?
A: 33.9 µM

Q: What about the TGI [53] of the same compound?
A: 23.9 µM

Q: What about the TGI [54] of the same compound?
A: 96.2 µM

Q: What does the source list for `CCCCOP1(=O)C=CC(Cl)=C(C)C1` (stereo not drawn)?
A: TGI [1]: 39.6 µM; TGI [55]: 54.4 µM; TGI [2]: 42.7 µM; TGI [4]: 75.1 µM; TGI [7]: 32.8 µM; TGI [8]: 36.3 µM; TGI [9]: > 100 µM; TGI [10]: 94.4 µM; TGI [11]: 89.2 µM; TGI [12]: 46.9 µM; TGI [13]: > 100 µM; TGI [15]: 51.3 µM; TGI [16]: 43.2 µM; TGI [18]: 49.8 µM; TGI [19]: 25.3 µM; TGI [21]: 77.7 µM; TGI [56]: > 100 µM; TGI [22]: 49.6 µM; TGI [23]: 49.5 µM; TGI [24]: > 100 µM; TGI [25]: 85.6 µM; TGI [26]: 45 µM; TGI [27]: 36.3 µM; TGI [28]: 31.7 µM; TGI [29]: 73.7 µM; TGI [57]: 71.7 µM; TGI [30]: 35 µM; TGI [31]: > 100 µM; TGI [32]: 50.8 µM; TGI [33]: > 100 µM; TGI [58]: 47.5 µM; TGI [35]: 41.9 µM; TGI [36]: 49.3 µM; TGI [59]: > 100 µM; TGI [37]: 80.8 µM; TGI [38]: > 100 µM; TGI [40]: 50 µM; TGI [43]: 46.6 µM; TGI [44]: 97.7 µM; TGI [46]: > 100 µM; TGI [49]: > 100 µM; TGI [52]: 39.6 µM; TGI [53]: 39.4 µM; TGI [54]: 54.5 µM

Q: With `O=C1CN(c2ccccc2)C(=O)C1C(=O)Nc1ccc(Cl)c(Cl)c1` (stereo not drawn) as the compound, how does the TGI [1] read?
A: 14 µM

Q: And the TGI [55]?
A: 12.4 µM

Q: What about the TGI [2] of the same compound?
A: 11.9 µM

Q: What about the TGI [60] of the same compound?
A: 15.1 µM

Q: And the TGI [3]?
A: 13.2 µM

Q: And the TGI [4]?
A: 18.5 µM

Q: And the TGI [6]?
A: 14.9 µM

Q: And the TGI [7]?
A: 13.1 µM

Q: And the TGI [8]?
A: 14.8 µM

Q: And the TGI [10]?
A: 14.3 µM

Q: What about the TGI [11] of the same compound?
A: 21.2 µM

Q: And the TGI [13]?
A: 12.6 µM

Q: What about the TGI [14] of the same compound?
A: 50.6 µM

Q: What about the TGI [17] of the same compound?
A: 6.48 µM

Q: What about the TGI [18] of the same compound?
A: 17.1 µM

Q: And the TGI [19]?
A: 11.7 µM

Q: What about the TGI [20] of the same compound?
A: 22.7 µM

Q: What about the TGI [21] of the same compound?
A: 12.6 µM

Q: What about the TGI [56] of the same compound?
A: 6.33 µM

Q: What about the TGI [22] of the same compound?
A: 19.2 µM

Q: What about the TGI [23] of the same compound?
A: 16.8 µM

Q: And the TGI [24]?
A: 17.2 µM

Q: And the TGI [26]?
A: 17.2 µM

Q: And the TGI [27]?
A: 16.3 µM

Q: What about the TGI [28] of the same compound?
A: 21.4 µM

Q: And the TGI [29]?
A: 24.5 µM

Q: And the TGI [57]?
A: 13.3 µM

Q: And the TGI [30]?
A: > 100 µM

Q: What about the TGI [33] of the same compound?
A: 11.7 µM

Q: And the TGI [34]?
A: 14.9 µM

Q: What about the TGI [59] of the same compound?
A: 14.3 µM

Q: What about the TGI [38] of the same compound?
A: 14.8 µM

Q: What about the TGI [40] of the same compound?
A: 8.88 µM

Q: What about the TGI [44] of the same compound?
A: 20.4 µM

Q: And the TGI [45]?
A: 20.2 µM

Q: And the TGI [47]?
A: 23 µM

Q: What about the TGI [49] of the same compound?
A: 15.7 µM

Q: And the TGI [50]?
A: 15.8 µM

Q: And the TGI [52]?
A: 9.66 µM

Q: And the TGI [53]?
A: 5.87 µM

Q: What about the TGI [54] of the same compound?
A: 14.5 µM

Q: What does the source list for `C=CCN(N=O)C(=O)ON1C(=O)CCC1=O`?
A: TGI [1]: > 100 µM; TGI [55]: > 100 µM; TGI [2]: > 100 µM; TGI [60]: > 100 µM; TGI [4]: > 100 µM; TGI [5]: > 100 µM; TGI [6]: > 100 µM; TGI [7]: > 100 µM; TGI [8]: > 100 µM; TGI [9]: > 100 µM; TGI [10]: > 100 µM; TGI [11]: > 100 µM; TGI [12]: > 100 µM; TGI [13]: > 100 µM; TGI [14]: > 100 µM; TGI [15]: > 100 µM; TGI [17]: > 100 µM; TGI [18]: > 100 µM; TGI [19]: > 100 µM; TGI [20]: > 100 µM; TGI [21]: > 100 µM; TGI [56]: > 100 µM; TGI [22]: > 100 µM; TGI [23]: > 100 µM; TGI [24]: > 100 µM; TGI [25]: > 100 µM; TGI [26]: > 100 µM; TGI [27]: > 100 µM; TGI [28]: > 100 µM; TGI [29]: > 100 µM; TGI [57]: > 100 µM; TGI [30]: > 100 µM; TGI [32]: > 100 µM; TGI [33]: > 100 µM; TGI [34]: > 100 µM; TGI [58]: > 100 µM; TGI [36]: > 100 µM; TGI [59]: > 100 µM; TGI [37]: > 100 µM; TGI [38]: > 100 µM; TGI [39]: > 100 µM; TGI [40]: > 100 µM; TGI [41]: > 100 µM; TGI [42]: > 100 µM; TGI [43]: > 100 µM; TGI [44]: > 100 µM; TGI [45]: > 100 µM; TGI [46]: > 100 µM; TGI [47]: > 100 µM; TGI [49]: > 100 µM; TGI [50]: > 100 µM; TGI [51]: > 100 µM; TGI [52]: > 100 µM; TGI [54]: > 100 µM

— PubChem BioAssay (NCI)
